US8901313B2, “6,5-heterocyclic propargylic alcohol compounds and uses therefor” (Genentech, Inc., priority 2011, dated 2014)
Like-named read-outs stand apart in the source and are kept apart here.

Assays:
[1] = biological target: T1, nuclear factor-kappa B (NF-kB)-inducing kinase (NIK) (Homo sapiens, UniProt Q99558); test: NIK Enzyme Inhibition Assay (Transcreener ADP assay); format: biochemical
T1 construct: made in house; host or cells: baculovirus-infected insect cells

[2] = test system: NF-kB signaling through NIK in human embryonic kidney 293 cells; test: 293-NIK NF-kB-Luciferase reporter assay; format: cell-based
How it was run: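 HEK293 cells stably carrying tetracycline-inducible NIK plus NF-kB (ELAM-1 element) firefly luciferase and constitutive TK-Renilla viability reporter. Compounds (0.2% DMSO) incubated 24 h with 1 ug/mL doxycycline; Dual Glo luminescence read, IC50 from firefly signal.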

[3] = test system: human embryonic kidney 293 cells; test: 293-NIK TK Renilla Luciferase reporter (general measure of cell viability); format: cell-based
Text: (1) The first assay was used to profile whether a test compound can inhibit the NF-kB signally through NIK inhibition without affecting cell viability. In this assay, human embryonic kidney 293 cells was stably transfected with a tetracycline-inducible NIK DNA construct containing a cytomegalovirus promoter plus two reporter DNA constructs. One reporter encoded firefly luciferase under the control of three repeats of an NF-kB response element from the ELAM-1 gene and reflects the level of NIK activity in the cells, whereas the other reporter constitutively expressed Renilla luciferase under the control of the herpes simplex virus thymidine kinase promoter and served as a general measure of cell viability. Cells were incubated with different concentrations of compounds (0.2% DMSO final) in medium containing 1 ug/mL doxycycline and 10% tet-system approved fetal bovine serum (Clontech) for 24 hours, after which the reporters' signals were detected using the Dual Glo luciferase detection system (Promega) according to the vendor's protocol. The compounds listed in Table 1 have the corresponding inhibitory value (IC50 in micromolar) for 293-NIK NF-kB-Luciferase activity (values for compounds are presented in the same order as found in Table 1): na, 0.059, na, na, na, 0.105, 0.027, na, 20, 1.2, na, 1.8, 0.0231, 0.879, 0.0361, 0.582, na, 0.142, na, 0.403, 0.059, 0.0331, na, na, 0.0573, 1.5, na, na, 0.0722, na, na, 0.589, 12.7, 3.7, 14.9, na, 0.707, 1, 0.0311, 0.332, 0.309, 0.0142, 0.051, 2.8, 0.129, na, na, 1.5, na, na, na, 1.3, 0.062, 20, 0.31, 0.104, 0.091, 0.037, 0.085, 0.279, na, 0.305, 0.064, 0.332, 0.133, 0.168, 0.217, 0.553, na and na.
The compounds in listed in Table 1 have the corresponding inhibitory value (IC50 in micromolar) for 293-NIK TK Renilla Luciferase activity: (values for compounds are presented in the same order as found in Table 1): 6.4, 3.6, 20, na, 1.6, 9.3, 18.5, na, na, 2.6, na, na, na, na, na, na, na, na, na, na, na, na, na, na, na, na, na, na, na, na, na, na, na, na, na, na, na, na, na, na, na, na, na, na, na, na, na, >20, na, na, na, 20, >20, 17, 1.3, 15.6, 0.967, 2.7, 11.2, 5.1, na, 20, 20, 20, 20, 20, 17.6, 20, na and na.

[4] = test system: p52 (NF-kB2) nuclear translocation in HeLa cells; test: NIK p52 Translocation Assay (non-classical NF-kB signaling); format: cell-based; settings: Homo sapiens
Protocol: (§1) (2) A second set of cell assay was used to define the selectivity of NIK inhibitors toward inhibition of classical vs. non-classical NF-kB signaling and rely on quantification of the nuclear translocation of p52 (NF-kB2) and REL-A (p65) using high content cellular imaging. For the p52 (non-classical NF-kB signaling) nuclear translocation assay, HeLa cells were treated with different concentrations of compounds (0.2% DMSO final) in medium containing 10% fetal bovine serum and then stimulated with 100 ng/mL of an anti-lymphotoxin beta receptor antibody (R&D Systems) for 5 hours. In the REL-A nuclear translocation assay, HeLa cells were incubated with compounds (0.2% DMSO final) for 4.5 hours in medium containing 10% fetal bovine serum before stimulating them with 10 ng/mL tumor necrosis factor (TNF)-α (R&D Systems) for 30 minutes. Cells were fixed with 4% paraformaldehyde, permeabilized by adding 0.1% Triton X-100 in phosphate buffered saline, and then incubated with either 2 ug/mL anti-p52 antibody (Millipore) or 400 ng/mL anti-REL-A (p65) antibody (Santa Cruz Biotechnology). Finally, the cells were incubated with an Alexa488-labeled secondary antibody (Invitrogen) and DRAQ5 DNA stain (Biostatus). Imaging was carried out using an Opera reader (Perkin Elmer) and data are analyzed with the aid of Acapella software (Perkin Elmer). The p52 or REL-A translocation into the nucleus was quantified by the ratio of the nuclear to cytoplasmic signal intensity. The concentration of inhibitor required for 50% inhibition (IC50 values) in these cell assays were derived from the plots of signal vs. inhibitor concentration. The compounds in listed in Table 1 have the corresponding inhibitory value (IC50 in micromolar) for NIK p52 Translocation Assay (values for compounds are presented in the same order as found in Table 1, and “na” means the data for this assay is to be determined): 0.326, 0.33, na, na, na, 0.218, 0.07, na, na, na, 0.129, 7.6, 0.077, 3.4, na, 0.518, na, 0.059, 0.514, 0.127, na, na, 0.010, na, na, 0.313, 0.275, na, 0.0727, na, na, na, na, na, na, 0.194, na, 6.4, 0.22, 0.346, na, na, na and na, na, na, na, na, na, 0.447, na, 0.089, 0.479, 0.489, 0.243, 0.747, 1, na, 1.9, 0.552, 2.1, na. na, na, na, na and na.

[5] = test system: REL-A (p65) nuclear translocation in HeLa cells; test: NIK RelA Translocation Assay (classical NF-kB signaling); format: cell-based; settings: Homo sapiens
Protocol: as §1
The compounds in listed in Table 1 has the corresponding inhibitory value (IC50 in micromolar) for NIK RelA Translocation Assay (values for compounds are presented in the same order as found in Table 1): 0.326, 0.33, na, na, na, 0.218, 0.07, na, na, na, na, na, 0.129, 7.6, 0.077, 3.4, na, 0.518, na, 0.059, 0.514, 0.127, na, na, 0.010, na, na, 0.313, 0.275, na, na, 0.0727, na, na, na, na, na, na, 0.194, na, 6.4, 0.22, 0.346, na, na, na, na, na, na, na, na, na, 0.447, na, 0.089, 0.479, 0.489, 0.243, 0.747, 1, na, 1.9, 0.552, 2.1, na, na, na, na, na and na.

[6] = comparative data, Tables 16A-16D, read-out: NIK ADP (Ki)
[7] = HEK293, comparative data, Tables 16A-16D, read-out: 293-NIK NF-kB-Luciferase (IC50)
[8] = HEK293, comparative data, Tables 16A-16D, read-out: 293-NIK TK Renilla Luciferase (IC50)
[9] = HeLa, comparative data, Tables 16A-16D, read-out: NIK p52 Translocation (IC50)
[10] = HeLa, comparative data, Tables 16A-16D, read-out: NIK RelA Translocation (IC50)
[11] = HEK293, 293 cells, constitutive Renilla luciferase, 24 hours, read-out: inhibitory value (IC50) for 293-NIK TK Renilla Luciferase activity
[12] = HeLa cells, 100 ng/mL anti-lymphotoxin beta receptor antibody, 5 hours, read-out: inhibitory value (IC50) for NIK p52 Translocation Assay
[13] = HeLa cells, compounds 4.5 hours, 10 ng/mL TNF-α 30 minutes, read-out: inhibitory value (IC50) for NIK RelA Translocation Assay
[14] = purified NIK 0.2-1 nM, 10 uM ATP, fluorescence polarization, Morrison's quadratic equation, read-out: inhibitory value (Ki) for NIK
[15] = HEK293, 293 cells with tetracycline-inducible NIK, 1 ug/mL doxycycline, 24 hours, read-out: inhibitory value (IC50) for 293-NIK NF-kB-Luciferase activity

T1 sequence (Q99558 whole entry): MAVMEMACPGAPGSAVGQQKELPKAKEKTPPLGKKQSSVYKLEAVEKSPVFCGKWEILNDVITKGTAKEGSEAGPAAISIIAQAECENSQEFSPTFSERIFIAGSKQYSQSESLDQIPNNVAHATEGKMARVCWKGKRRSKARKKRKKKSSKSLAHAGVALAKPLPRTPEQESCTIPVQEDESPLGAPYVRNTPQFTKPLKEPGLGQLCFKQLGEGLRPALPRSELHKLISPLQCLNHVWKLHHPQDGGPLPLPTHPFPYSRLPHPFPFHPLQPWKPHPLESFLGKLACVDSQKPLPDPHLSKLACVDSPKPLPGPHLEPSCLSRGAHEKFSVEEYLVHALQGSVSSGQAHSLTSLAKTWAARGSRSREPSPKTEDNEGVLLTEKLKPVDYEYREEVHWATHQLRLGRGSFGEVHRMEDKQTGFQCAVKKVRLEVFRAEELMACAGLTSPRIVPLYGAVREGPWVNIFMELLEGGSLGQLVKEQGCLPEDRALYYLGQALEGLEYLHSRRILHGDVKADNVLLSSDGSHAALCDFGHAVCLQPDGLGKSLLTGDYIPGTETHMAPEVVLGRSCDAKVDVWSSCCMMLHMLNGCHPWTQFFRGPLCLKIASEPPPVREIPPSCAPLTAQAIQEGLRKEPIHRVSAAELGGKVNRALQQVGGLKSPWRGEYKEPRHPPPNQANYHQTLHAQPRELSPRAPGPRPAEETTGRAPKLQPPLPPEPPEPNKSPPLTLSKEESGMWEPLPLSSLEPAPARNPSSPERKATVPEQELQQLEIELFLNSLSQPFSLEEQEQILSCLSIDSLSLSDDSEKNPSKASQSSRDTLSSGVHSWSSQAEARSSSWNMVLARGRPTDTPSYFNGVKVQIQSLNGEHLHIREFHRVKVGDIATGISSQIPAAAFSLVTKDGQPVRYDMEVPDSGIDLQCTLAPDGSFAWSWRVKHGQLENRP

| Ki [1, 6] [nM] | IC50 [4, 9] [nM] | IC50 [5, 10] [nM] | IC50 [5, 13] [nM] | Ki [1, 14] [nM] | SMILES | IC50 [2, 7] [nM] | IC50 [3, 8] [nM] | IC50 [3, 11] [nM] | IC50 [4, 12] [nM] | IC50 [2, 15] [nM] |
| --- | --- | --- | --- | --- | --- | --- | --- | --- | --- | --- |
| 0.2 | 346 | > 20000 |  |  | CN(C)C(=O)c1nn(-c2ccnc(N)n2)c2cc(C#CC(C)(O)c3ncco3)ccc12 (stereo not drawn) [1-(2-aminopyrimidin-4-yl)-6-(3-hydroxy-3-(oxazol-2-yl)but-1-ynyl)-N,N-dimethyl-1H-indazole-3-carboxamide] | 51 | 583 |  |  |  |
| 0.3 | 70 | > 20000 |  |  | CC(O)(C#Cc1ccc2ncn(-c3ccnc(N)n3)c2c1)c1nccs1 (stereo not drawn) [4-(1-(2-aminopyrimidin-4-yl)-1H-benzo[d]imidazol-6-yl)-2-(thiazol-2-yl)but-3-yn-2-ol] | 27 | 4900 |  |  |  |
| 0.3 | 77 | > 20000 |  |  | CC(O)(C#Cc1ccc2cnn(-c3ccnc(N)n3)c2c1)c1ncco1 (stereo not drawn) [4-(1-(2-aminopyrimidin-4-yl)-1H-indazol-6-yl)-2-(oxazol-2-yl)but-3-yn-2-ol] | 36 | 514 |  |  |  |
| 0.1 | 222 | > 20000 |  |  | Cc1nn(-c2ccnc(N)n2)c2cc(C#CC(C)(O)c3nccs3)ccc12 (stereo not drawn) [4-(1-(2-aminopyrimidin-4-yl)-3-methyl-1H-indazol-6-yl)-2-(thiazol-2-yl)but-3-yn-2-ol] | 11 | 1200 |  |  |  |
| 2.7 | 862 | > 20000 |  |  | CC(O)(C#Cc1ccc2c(c1)N(c1ccnc(N)n1)CC2)c1nccs1 (stereo not drawn) [4-(1-(2-aminopyrimidin-4-yl)indolin-6-yl)-2-(thiazol-2-yl)but-3-yn-2-ol, reference compound] | 126 | 3900 |  |  |  |
|  |  |  | 326 |  | CC(O)(C#Cc1ccc2cnn(-c3ccnc(N)n3)c2c1)c1nccs1 (stereo not drawn) [Example T1-1, 4-(1-(2-aminopyrimidin-4-yl)-1H-indazol-6-yl)-2-(thiazol-2-yl)but-3-yn-2-ol] |  |  | 6400 | 326 |  |
|  |  |  | 218 | 0.14 | CC(O)(C#Cc1ccc2cnn(-c3nc(N)ncc3Cl)c2c1)c1nccs1 (stereo not drawn) [Example T1-6, 4-(1-(2-amino-5-chloro-pyrimidin-4-yl)-1H-indazol-6-yl)-2-(thiazol-2-yl)but-3-yn-2-ol] |  |  | 9300 | 218 | 105 |
|  |  |  |  | 10 | Cc1cc(C(C)(O)C#Cc2ccc3c(C(=O)N(C)C)nn(-c4ccnc(N)n4)c3c2)on1 (stereo not drawn) [Example T1-52, 1-(2-aminopyrimidin-4-yl)-6-(3-hydroxy-3-(3-methyl-isoxazol-5-yl)but-1-ynyl)-N,N-dimethyl-1H-indazole-3-carboxamide] |  |  | ≥ 20000 | 89 | 1300 |
|  |  |  |  | 105 | Cc1nn(-c2ccnc(N)n2)c2cc(C#CC(C)(O)c3cncs3)ccc12 (stereo not drawn) [Example T1-54, 4-(1-(2-aminopyrimidin-4-yl)-3-methyl-1H-indazol-6-yl)-2-(thiazol-5-yl)but-3-yn-2-ol] |  |  | 17000 | 489 | 20000 |
|  |  |  | 243 | 0.15 | Cc1cc(C(C)(O)C#Cc2ccc3c(C)nn(-c4ccnc(N)n4)c3c2)no1 (stereo not drawn) [Example T1-58, 4-(1-(2-aminopyrimidin-4-yl)-3-methyl-1H-indazol-6-yl)-2-(5-methylisoxazol-3-yl)but-3-yn-2-ol] |  |  | 2700 |  | 37 |
|  |  |  | 1900 | 17 | Cc1nn(-c2ccnc(N)n2)c2cc(C#CC(C)(O)c3cnccn3)ccc12 (stereo not drawn) [Example T1-62, 4-(1-(2-aminopyrimidin-4-yl)-3-methyl-1H-indazol-6-yl)-2-(pyrazin-2-yl)but-3-yn-2-ol] |  |  | ≥ 20000 |  | 305 |
|  |  |  | 552 | 0.23 | C[C@@](O)(C#Cc1ccc2nc(C3CC3)n(-c3ncnc(N)n3)c2c1)c1nccs1 [Example T1-63, (R)-4-(1-(4-amino-1,3,5-triazin-2-yl)-2-cyclopropyl-1H-benzo[d]imidazol-6-yl)-2-(thiazol-2-yl)but-3-yn-2-ol] |  |  | ≥ 20000 |  | 64 |
|  |  |  | 2100 | 5 | Cc1cc(C(C)(O)C#Cc2ccc3nc(C)n(-c4ncnc(N)n4)c3c2)no1 (stereo not drawn) [Example T1-64, 4-(1-(4-amino-1,3,5-triazin-2-yl)-2-methyl-1H-benzo[d]imidazol-6-yl)-2-(5-methyl-isoxazol-3-yl)but-3-yn-2-ol] |  |  | ≥ 20000 |  | 332 |
